Measured values taken from patent US11319299B2, “Substituted carboxamides as inhibitors of WDR5 protein-protein binding” (PROPELLON THERAPEUTICS INC., priority 2016, dated 2022).

target: WDR5 (Homo sapiens (Human), UniProt P61964); experiment: Surface Plasmon Resonance (SPR) assay, KD and residence time; assay type: binding; settings: surface plasmon resonance (SPR); read-out: WDR5 binding affinity (KD)

Compound | Kd
CC1CN(c2cc(F)c(-c3ccc(F)c(C(N)=O)c3)cc2NC(=O)c2c[nH]c(=O)cc2C(F)F)CCN1C (stereo in doubt) [Example 596, N-[5-(3-carbamoyl-4-fluorophenyl)-4-fluoro-2-[(3R)-3,4-dimethylpiperazin-1-yl]phenyl]-4-(difluoromethyl)-6-oxo-1H-pyridine-3-carboxamide] | 4.03 nM
CNC(=O)c1ccc(-c2cc(NC(=O)c3c[nH]c(=O)cc3C(F)F)c(N3CCN(C)C(C)C3)cc2F)cc1F (stereo in doubt) [Example 597, 4-(difluoromethyl)-N-[4-fluoro-5-[3-fluoro-4-(methylcarbamoyl)phenyl]-2-[(3R)-3,4-dimethylpiperazin-1-yl]phenyl]-6-oxo-1H-pyridine-3-carboxamide] | 0.711 nM
CNC(=O)c1cc(-c2cc(NC(=O)c3c[nH]c(=O)cc3C(F)F)c(N3CCN(C)C(C)C3)cc2F)ccc1F (stereo in doubt) [Example 598, 4-(difluoromethyl)-N-[4-fluoro-5-[4-fluoro-3-(methylcarbamoyl)phenyl]-2-[(3R)-3,4-dimethylpiperazin-1-yl]phenyl]-6-oxo-1H-pyridine-3-carboxamide] | 1.51 nM
CC1CN(c2cc(F)c(-c3nccc(N4CCOCC4)n3)cc2NC(=O)c2c[nH]c(=O)cc2C(F)(F)F)CCN1C (stereo in doubt) [Example 599, N-[4-fluoro-5-(4-morpholin-4-ylpyrimidin-2-yl)-2-[(3R)-3,4-dimethylpiperazin-1-yl]phenyl]-6-oxo-4-(trifluoromethyl)-1H-pyridine-3-carboxamide] | 4.18 nM
C[C@@H]1CN(c2cc(F)c(-c3cnc(N4CCOC[C@H]4C)nc3)cc2NC(=O)c2cn(C)c(=O)cc2C(F)F)CCN1C (stereo in doubt) [Example 607, 4-(difluoromethyl)-N-[4-fluoro-2-[(3R)-3,4-dimethylpiperazin-1-yl]-5-[2-[(3R)-3-methylmorpholin-4-yl]pyrimidin-5-yl]phenyl]-1-methyl-6-oxopyridine-3-carboxamide] | 1.53 nM
Cc1cc(C(=O)Nc2cc(-c3cnc(N4CCOC(C)C4)nc3)c(F)cc2N2C[C@@H](C)N(C)[C@@H](C)C2)cc(C)c1F (stereo in doubt) [Example 611, 4-fluoro-N-[4-fluoro-5-[2-[(2R)-2-methylmorpholin-4-yl]pyrimidin-5-yl]-2-[(3S,5R)-3,4,5-trimethylpiperazin-1-yl]phenyl]-3,5-dimethylbenzamide] | 1.55 nM
CC1CN(c2cc(F)c(-c3cnc(N4CCC(C)(O)CC4)nc3)cc2NC(=O)c2ccc(F)cc2C(F)(F)F)CCN1C (stereo in doubt) [Example 613, 4-fluoro-N-[4-fluoro-5-[2-(4-hydroxy-4-methylpiperidin-1-yl)pyrimidin-5-yl]-2-[(3R)-3,4-dimethylpiperazin-1-yl]phenyl]-2-(trifluoromethyl)benzamide] | 0.922 nM
CC1CN(c2cc(F)c(-c3ccnc(N4CCOCC4)n3)cc2NC(=O)c2ccc(F)cc2C(F)(F)F)CCN1C (stereo in doubt) [Example 614, 4-fluoro-N-[4-fluoro-5-(2-morpholin-4-ylpyrimidin-4-yl)-2-[(3R)-3,4-dimethylpiperazin-1-yl]phenyl]-2-(trifluoromethyl)benzamide] | 0.733 nM
CC1CN(c2cc(F)c(-c3cnc(N4CCOCC4)s3)cc2NC(=O)c2c[nH]c(=O)cc2C(F)(F)F)CCN1C (stereo in doubt) [Example 618, N-[4-fluoro-5-(2-morpholin-4-yl-1,3-thiazol-5-yl)-2-[(3R)-3,4-dimethylpiperazin-1-yl]phenyl]-6-oxo-4-(trifluoromethyl)-1H-pyridine-3-carboxamide] | 1.13 nM
CC1CN(c2cc(F)c(-c3csc(N4CCOCC4)n3)cc2NC(=O)c2cn(C)c(=O)cc2C(F)F)CCN1C (stereo in doubt) [Example 620, 4-(difluoromethyl)-N-[4-fluoro-5-(2-morpholin-4-yl-1,3-thiazol-4-yl)-2-[(3R)-3,4-dimethylpiperazin-1-yl]phenyl]-1-methyl-6-oxopyridine-3-carboxamide] | 4.19 nM
CC1CN(c2cc(F)c(-c3cnc(N4CCOCC4)s3)cc2NC(=O)c2cn(C)c(=O)cc2C(F)F)CCN1C (stereo in doubt) [Example 621, 4-(difluoromethyl)-N-[4-fluoro-5-(2-morpholin-4-yl-1,3-thiazol-5-yl)-2-[(3R)-3,4-dimethylpiperazin-1-yl]phenyl]-1-methyl-6-oxopyridine-3-carboxamide] | 4.84 nM
CC1CN(c2cc(F)c(-c3cc(C(=O)NC(C)(C)CC(C)(C)C)c(F)cc3F)cc2NC(=O)c2ccc(F)cc2C(F)(F)F)CCN1C (stereo in doubt) [Example 625, 2,4-difluoro-5-[2-fluoro-5-[[4-fluoro-2-(trifluoromethyl)benzoyl]amino]-4-[(3R)-3,4-dimethylpiperazin-1-yl]phenyl]-N-(2,4,4-trimethylpentan-2-yl)benzamide] | 172 nM
C[C@@H]1CN(c2cc(F)c(-c3cnc(N4CCOC[C@H]4C)nc3)cc2NC(=O)c2c[nH]c(=O)cc2C(F)F)CCN1C (stereo in doubt) [Example 628, 4-(difluoromethyl)-N-[4-fluoro-2-[(3R)-3,4-dimethylpiperazin-1-yl]-5-[2-[(3R)-3-methylmorpholin-4-yl]pyrimidin-5-yl]phenyl]-6-oxo-1H-pyridine-3-carboxamide] | 1.25 nM
CC1CN(c2cc(F)c(-c3cc(C(N)=O)c(F)cc3F)cc2NC(=O)c2ccc(F)cc2C(F)(F)F)CCN1C (stereo in doubt) [Example 635, 2,4-difluoro-5-[2-fluoro-5-[[4-fluoro-2-(trifluoromethyl)benzoyl]amino]-4-[(3R)-3,4-dimethylpiperazin-1-yl]phenyl]benzamide] | 66.9 nM
CC1CN(c2cc(F)c(C3=CCCN(c4ncccn4)C3)cc2NC(=O)c2ccc(F)cc2C(F)(F)F)CCN1C (stereo in doubt) [Example 649, 4-fluoro-N-[4-fluoro-5-(1-pyrimidin-2-yl-3,6-dihydro-2H-pyridin-5-yl)-2-[(3R)-3,4-dimethylpiperazin-1-yl]phenyl]-2-(trifluoromethyl)benzamide] | 1.87 nM
CC1CN(c2cc(F)c(C3=CCCN(c4ncc(C=O)cn4)C3)cc2NC(=O)c2ccc(F)cc2C(F)(F)F)CCN1C (stereo in doubt) [Example 650, 4-fluoro-N-[4-fluoro-5-[1-(5-formylpyrimidin-2-yl)-3,6-dihydro-2H-pyridin-5-yl]-2-[(3R)-3,4-dimethylpiperazin-1-yl]phenyl]-2-(trifluoromethyl)benzamide] | 5.18 nM
CC1CN(c2cc(F)c(-c3ccc(C(N)=O)c(F)c3)cc2NC(=O)c2cn(C)c(=O)cc2C(F)F)CCN1C (stereo in doubt) [Example 652, N-[5-(4-carbamoyl-3-fluorophenyl)-4-fluoro-2-[(3R)-3,4-dimethylpiperazin-1-yl]phenyl]-4-(difluoromethyl)-1-methyl-6-oxopyridine-3-carboxamide] | 5.29 nM
CNC(=O)c1ccc(-c2cc(NC(=O)c3cn(C)c(=O)cc3C(F)F)c(N3CCN(C)C(C)C3)cc2F)cc1F (stereo in doubt) [Example 653, 4-(difluoromethyl)-N-[4-fluoro-5-[3-fluoro-4-(methylcarbamoyl)phenyl]-2-[(3R)-3,4-dimethylpiperazin-1-yl]phenyl]-1-methyl-6-oxopyridine-3-carboxamide] | 3.43 nM
CC1CN(c2cc(F)c(-c3ccnc(N4CCOCC4)n3)cc2NC(=O)c2ccc(F)cc2C(F)F)CCN1C (stereo in doubt) [Example 655, 2-(difluoromethyl)-4-fluoro-N-[4-fluoro-5-(2-morpholin-4-ylpyrimidin-4-yl)-2-[(3R)-3,4-dimethylpiperazin-1-yl]phenyl]benzamide] | 1.06 nM
CC1CN(c2cc(F)c(-c3cc(F)c(C(N)=O)c(F)c3)cc2NC(=O)c2ccc(F)cc2C(F)(F)F)CCN1C (stereo in doubt) [Example 657, 2,6-difluoro-4-[2-fluoro-5-[[4-fluoro-2-(trifluoromethyl)benzoyl]amino]-4-[(3R)-3,4-dimethylpiperazin-1-yl]phenyl]benzamide] | 4.69 nM
C[C@@H]1CN(c2nccc(-c3cc(NC(=O)c4ccc(F)cc4C(F)(F)F)c(N4CCN(C)[C@H](C)C4)cc3F)n2)CCO1 (stereo in doubt) [Example 660, 4-fluoro-N-[4-fluoro-2-[(3R)-3,4-dimethylpiperazin-1-yl]-5-[2-[(2R)-2-methylmorpholin-4-yl]pyrimidin-4-yl]phenyl]-2-(trifluoromethyl)benzamide] | 0.29 nM
CC1CN(c2cc(F)c(-c3ccnc(N4CCOCC4)n3)cc2NC(=O)c2cn(C)c(=O)cc2C(F)F)CCN1C (stereo in doubt) [Example 664, 4-(difluoromethyl)-N-[4-fluoro-5-(2-morpholin-4-ylpyrimidin-4-yl)-2-[(3R)-3,4-dimethylpiperazin-1-yl]phenyl]-1-methyl-6-oxopyridine-3-carboxamide] | 2.68 nM
CC1CN(c2cc(F)c(-c3ccc(C(=O)NC(C)(C)CC(C)(C)C)c(F)c3F)cc2NC(=O)c2ccc(F)cc2C(F)(F)F)CCN1C (stereo in doubt) [Example 666, 2,3-difluoro-4-[2-fluoro-5-[[4-fluoro-2-(trifluoromethyl)benzoyl]amino]-4-[(3R)-3,4-dimethylpiperazin-1-yl]phenyl]-N-(2,4,4-trimethylpentan-2-yl)benzamide] | 117 nM
CC1CN(c2cc(F)c(-c3ccc(C(N)=O)c(F)c3F)cc2NC(=O)c2ccc(F)cc2C(F)(F)F)CCN1C (stereo in doubt) [Example 668, 2,3-difluoro-4-[2-fluoro-5-[[4-fluoro-2-(trifluoromethyl)benzoyl]amino]-4-[(3R)-3,4-dimethylpiperazin-1-yl]phenyl]benzamide] | 18.3 nM
CC1CN(c2cc(F)c(-c3cccc(N4CCOCC4)n3)cc2NC(=O)c2cn(C)c(=O)cc2C(F)F)CCN1C (stereo in doubt) [Example 672, 4-(difluoromethyl)-N-[4-fluoro-5-(6-morpholin-4-ylpyridin-2-yl)-2-[(3R)-3,4-dimethylpiperazin-1-yl]phenyl]-1-methyl-6-oxopyridine-3-carboxamide] | 5.02 nM
